Laboratory results published in US9475815B2, “Substituted benzothienyl-pyrrolotriazines and uses thereof” (Bayer Intellectual Property GmbH, priority 2012, dated 2016).
Counter-ions that a name gives are not always drawn.

How the values were obtained:
[1] = test system: Human umbilical vein endothelial cells (HUVEC); test: Inhibition of growth factor-mediated cell proliferation (hFGF-2); type: cell-based; conditions: Homo sapiens, HUVEC, 72 h, 72 h exposure, hFGF-2 stimulated; from averaged pIC50 values
Protocol: Human umbilical vein endothelial cells (HUVEC) were obtained from Cellsystems (FC-0003) and grown in Vasculife VEGF complete medium (Cellsystems, LL-1020) containing 2% fetal bovine serum (FBS) at 37° C. and 5% CO2. The cells were used for proliferation assays up to passage 7.
The HUVEC cells were harvested using accutase (PAA, L11-007) and seeded in columns 2 to 12 of 96-well plates (Falcon MICROTEST tissue culture plate 96-well flat bottom, BD 353075, or μCLEAR-PLATE, black, 96-well, Greiner Bio-One, No. 655090) at a cell density of 2500 cells/well in 100 μl Vasculife VEGF complete medium with column 1 remaining empty as blank. Cells were allowed to incubate at 37° C. and 5% CO2 for at least 6 h. Then, the cells were washed once with PBS and starved overnight in Vasculife basal medium (Cellsystems, LM-0002) containing heparin, ascorbate and L-glutamine (components of the Vasculife Life Factors Kit, Cellsystems, LL-1020) as well as 0.2% FBS.
After about 18 h, the starving medium was discarded, and the cells were exposed for 72 h to 9 consecutive log or half-log concentrations of test compound in the range of 10 pM to 30 μM and to 5, 10 or 20 ng/ml hFGF-2 (recombinant human FGF basic, R&D Systems, 233-FB) in 100 μl starving medium. 10 mM stock solutions of test compounds in DMSO were diluted to 200× final concentration in DMSO resulting in a final DMSO concentration of 0.5% in all wells. Controls consisted of cells grown in starving medium only and of cells grown in hFGF-2 containing starving medium with 0.5% DMSO. To determine cell proliferation, 5 μl Alamar Blue solution (Biosource, DAL1100) was added to each well (1:20 dilution), and the cells were allowed to incubate for further 4 h at 37° C. and 5% CO2 before measuring fluorescence (ex. 535 nm, em. 595 nm) with a Spectrafluor Plus Tecan plate reader (XFLUOR4 version 4.20). In some experiments, an ATP Determination Kit (BIAFFIN GmbH, LBR-T100) was used according to the manufacturer's instructions. In each experiment, samples were assayed in triplicate, and the standard deviations were determined GraphPad Prism 5 software was used to analyze the data and to obtain IC50 values. All test compounds were assayed 2 to 10 times in independent experiments and similar results were obtained.

[2] = target: human mTOR (Homo sapiens (Human), UniProt P42345); test: mTOR kinase assay (TR-FRET, for comparative purposes); type: biochemical; conditions: read-out: mTOR % inhibition @ 1 μM, 1 μM test compound, 40 μM ATP, mean values
[3] = target: human FGFR-1 (Homo sapiens, UniProt P11362); test: FGFR-1 high ATP kinase assay (TR-FRET)
[4] = target: human FGFR-3 (Homo sapiens (Human), UniProt P22607); test: FGFR-3 kinase assay (TR-FRET); type: biochemical; conditions: 10 μM ATP, 15 min pre-incubation with enzyme
human FGFR-3, sequence (P22607 397-806): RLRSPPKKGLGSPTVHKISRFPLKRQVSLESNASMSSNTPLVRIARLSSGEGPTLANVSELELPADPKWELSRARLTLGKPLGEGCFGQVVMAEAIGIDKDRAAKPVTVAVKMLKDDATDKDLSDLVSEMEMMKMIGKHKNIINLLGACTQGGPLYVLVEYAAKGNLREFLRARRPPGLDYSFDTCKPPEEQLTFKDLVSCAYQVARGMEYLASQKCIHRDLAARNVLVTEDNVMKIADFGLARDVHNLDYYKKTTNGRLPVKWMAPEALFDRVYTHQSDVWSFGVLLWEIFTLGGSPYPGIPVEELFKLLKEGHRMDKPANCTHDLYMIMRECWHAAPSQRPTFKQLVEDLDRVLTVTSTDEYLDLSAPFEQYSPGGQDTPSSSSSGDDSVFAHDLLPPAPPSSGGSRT

human mTOR, sequence (P42345 1360-2549): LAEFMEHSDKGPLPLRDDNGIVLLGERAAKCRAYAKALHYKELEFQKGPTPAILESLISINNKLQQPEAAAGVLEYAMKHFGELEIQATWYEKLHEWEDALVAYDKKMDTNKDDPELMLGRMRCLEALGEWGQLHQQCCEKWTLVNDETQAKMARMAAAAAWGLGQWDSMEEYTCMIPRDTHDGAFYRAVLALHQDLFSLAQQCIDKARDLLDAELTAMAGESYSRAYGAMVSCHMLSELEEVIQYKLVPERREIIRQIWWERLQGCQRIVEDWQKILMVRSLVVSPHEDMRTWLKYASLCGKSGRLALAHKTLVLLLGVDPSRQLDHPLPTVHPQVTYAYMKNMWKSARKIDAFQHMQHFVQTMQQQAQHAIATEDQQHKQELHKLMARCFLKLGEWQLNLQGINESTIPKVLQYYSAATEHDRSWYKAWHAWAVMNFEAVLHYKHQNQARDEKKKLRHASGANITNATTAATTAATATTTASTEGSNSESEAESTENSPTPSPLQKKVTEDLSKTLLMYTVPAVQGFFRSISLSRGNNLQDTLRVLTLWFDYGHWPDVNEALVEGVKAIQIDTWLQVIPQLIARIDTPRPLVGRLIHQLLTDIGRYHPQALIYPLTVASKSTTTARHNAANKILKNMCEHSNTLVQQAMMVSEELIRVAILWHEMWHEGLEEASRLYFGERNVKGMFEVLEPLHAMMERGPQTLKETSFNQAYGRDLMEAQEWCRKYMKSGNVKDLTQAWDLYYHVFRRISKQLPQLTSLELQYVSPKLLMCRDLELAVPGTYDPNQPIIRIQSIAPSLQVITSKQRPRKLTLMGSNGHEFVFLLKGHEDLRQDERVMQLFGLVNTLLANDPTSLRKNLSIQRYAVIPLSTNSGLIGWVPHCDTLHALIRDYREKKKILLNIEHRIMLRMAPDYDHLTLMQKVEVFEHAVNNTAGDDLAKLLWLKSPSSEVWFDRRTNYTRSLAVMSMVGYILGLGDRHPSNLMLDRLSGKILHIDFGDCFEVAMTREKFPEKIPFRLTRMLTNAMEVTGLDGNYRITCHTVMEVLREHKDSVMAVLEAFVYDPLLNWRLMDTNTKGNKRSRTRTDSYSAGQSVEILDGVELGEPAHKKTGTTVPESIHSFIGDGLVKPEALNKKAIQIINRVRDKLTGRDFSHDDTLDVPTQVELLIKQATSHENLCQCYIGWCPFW
human FGFR-1, sequence (P11362 22-822 limits assumed): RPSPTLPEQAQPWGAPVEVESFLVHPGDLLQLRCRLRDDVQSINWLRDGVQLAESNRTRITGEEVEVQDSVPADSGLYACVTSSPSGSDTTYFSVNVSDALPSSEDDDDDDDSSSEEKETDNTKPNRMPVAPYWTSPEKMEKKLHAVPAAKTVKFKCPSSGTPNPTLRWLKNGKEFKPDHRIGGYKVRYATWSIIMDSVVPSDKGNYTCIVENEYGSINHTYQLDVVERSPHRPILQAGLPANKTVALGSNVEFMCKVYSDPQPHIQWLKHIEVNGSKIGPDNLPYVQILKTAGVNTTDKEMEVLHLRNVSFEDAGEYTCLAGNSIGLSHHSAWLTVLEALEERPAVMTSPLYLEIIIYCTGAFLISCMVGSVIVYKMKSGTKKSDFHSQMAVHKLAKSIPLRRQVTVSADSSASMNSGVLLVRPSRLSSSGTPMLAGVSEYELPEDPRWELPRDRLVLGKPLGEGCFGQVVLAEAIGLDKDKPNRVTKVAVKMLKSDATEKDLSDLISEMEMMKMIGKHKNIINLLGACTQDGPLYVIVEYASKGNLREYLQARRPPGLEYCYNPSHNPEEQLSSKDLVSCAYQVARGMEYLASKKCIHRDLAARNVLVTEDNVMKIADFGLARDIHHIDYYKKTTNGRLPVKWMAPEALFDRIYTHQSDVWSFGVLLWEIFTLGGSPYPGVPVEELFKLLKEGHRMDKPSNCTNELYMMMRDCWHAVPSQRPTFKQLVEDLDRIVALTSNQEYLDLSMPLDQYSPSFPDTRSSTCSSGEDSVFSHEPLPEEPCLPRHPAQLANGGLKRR

Row | Compound | IC50 [1] [nM] | inhibition at 1 µM [2] [%] | IC50 [3] [nM] | IC50 [4] [nM]
1 | COc1cc(C)cc2cc(-c3cc(CN4CC[C@](C)(N)C4)n4ncnc(N)c34)sc12 [Example 5, 7-{[(3S)-3-Amino-3-methylpyrrolidin-1-yl]methyl}-5-(7-methoxy-5-methyl-1-benzothiophen-2-yl)pyrrolo[2,1-f][1,2,4]triazin-4-amine trihydrochloride] | 48 | 18.8 | 1.1 | 7.4
2 | CCN[C@H]1CCN(Cc2cc(-c3cc4cc(C)cc(OC)c4s3)c3c(N)ncnn23)C1 [Example 16] | 80 | 26.7 | 15.6 | 15.5
3 | COc1cc(C)cc2cc(-c3cc(CN4CCCC(N(C)C)C4)n4ncnc(N)c34)sc12 (stereo not shown) [Example 86] | 37 | 33 | 4.6 | 9.6
4 | COc1cc(C)cc2cc(-c3cc(CN4CC[C@H](N(C)C)C4)n4ncnc(N)c34)sc12 [Example 15] | 180 | 25.2 | 11.1 | 23
5 | COc1cc(C)cc2cc(-c3cc(CNCC(N)=O)n4ncnc(N)c34)sc12 [Example 18] | 155 | 39.1 | 26.4 | 7.8
6 | COc1cc(C)cc2cc(-c3cc(CN4CCNC(=O)CC4)n4ncnc(N)c34)sc12 [Example 20] | 110 | 35.6 | 54.7 | 24.8
7 | COc1cc(C)cc2cc(-c3cc(CNC(=O)CN)n4ncnc(N)c34)sc12 [Example 106, N-{[4-Amino-5-(7-methoxy-5-methyl-1-benzothiophen-2-yl)pyrrolo[2,1-f][1,2,4]triazin-7-yl]-methyl}glycinamide dihydrochloride] | 20 | 5.6 | 25.4 | 62.6
8 | COc1cc(C)cc2cc(-c3cc(CN4CCN(C(=O)CO)CC4)n4ncnc(N)c34)sc12 [Example 96, 1-(4-{[4-Amino-5-(7-methoxy-5-methyl-1-benzothiophen-2-yl)pyrrolo[2,1-f][1,2,4]triazin-7-yl]-methyl}piperazin-1-yl)-2-hydroxyethanone] | 72 | 37.9 | 12.6 | 11.9
9 | COc1cc(C)cc2cc(-c3cc(C(=O)N4CCC[C@](C)(N)C4)n4ncnc(N)c34)sc12 [Example 105] | 137 | 17.1 | 20.4 | 25.7
10 | COc1cc(C)cc2cc(-c3cc(CN4CC[C@H](N)C4)n4ncnc(N)c34)sc12 [Example 9, 7-{[(3S)-3-Aminopyrrolidin-1-yl]methyl}-5-(7-methoxy-5-methyl-1-benzothiophen-2-yl)pyrrolo[2,1-f][1,2,4]triazin-4-amine] | 145 | 24.2 | 4.7 | 7.4
